Laboratory results: article PMC11054638, “Transport of Non-Steroidal Anti-Inflammatory Drugs across an Oral Mucosa Epithelium In Vitro Model” (Pharmaceutics, 2024)
Like-named read-outs stand apart in the source and are kept apart here.

What was measured:
[1] = system: TR146 oral mucosa in vitro model; test: High-throughput (96.96) qPCR chip, mRNA expression after inflammation studies; format: cell-based, human; settings: 48 h, normalised to control; mean ± SD
Description: ThinCerts® were seeded with cells as described above. […] Three days before the experiments, cell layers and blanks were washed twice on the basolateral compartment with 900 µL cultivation media (DMEM supplemented with 10% Fetal Calf Serum and 1% Penicillin/Streptomycin) to remove anti-inflammatory hydrocortisone residues (a component of media supplement HKGS) and were further cultivated in cultivation media.
Prior to treating cells with prepared DMEM solutions, TEER was measured in cultivation media DMEM supplemented with 1% Penicillin/Streptomycin and 10% Fetal Calf Serum. Subsequently, cell layers and blanks were washed with DMEM (without supplements) twice on the apical and basolateral compartment, followed by TEER measurements in DMEM. Media of cells were replaced with previously prepared DMEM solutions. Control media was applied on the blanks. […] Subsequently, 10 µM carboxyfluorescein was added to the apical DMEM solutions and incubated in the incubator at 37 °C for 2 h. Media were immediately collected and measured for the RFU content using the EnSpire as described above. Afterwards, media were stored at −20 °C until further usage. Two cell-grown ThinCerts^TM of each treatment were pooled as one sample with 350 µL lysis buffer supplemented with 1% ß-mercaptoethanol and stored at −80 °C for RNA isolation.
In short, RNA samples collected at the 48-hour timepoint of the inflammation studies and generated by pooling two cell-grown inserts were tested as duplicates on the expression of 95 markers and 1 negative control (H2O). The mRNA samples were amplified with three different primer pools containing 54 primers (PPIA, ACTB, GAPDH, B2M, CLDN1, CLDN2, CLDN3, CLDN4, CLDN5, CLDN6, CLDN7, CLDN8, CLDN9, CLDN10tva, […]
MARVELD2, ZO-1, ZO-2, ZO-3, SLC2A1, SLC7A1, SLC7A5, SLC16A1, ABCB1, ABCC1, ABCC2, ABCC3, ABCC4, ABCC5, ABCG2, INSR, LRP1, TFRC, VEGF-A, CDH5, VWF), 32 primers (CK1, CK4, […]
Quality control of generated data excluded Ct measured outside of the marker’s melting temperature ± 1.5 °C. To calculate the relative expression for each marker, the relative quantitative value was first calculated by subtracting the mean Ct values of control samples from the Ct values of treated samples and potentiating the resulting ΔCt by the power of 2 (=2ΔCt). The geometric mean of housekeeping genes […]
the relative quantitative value of each marker was divided by the calculated geometric mean of housekeeping genes of the respective sample. Subsequent expression values of treated samples were […]
Tested RNA samples were collected after three independent experiments with 4 treatment groups (Control, INF, INF+Ibu, Ibu) per experiment (N=12). Statistical analysis was performed as two-way ANOVA with post hoc Holm–Sidak test with *p<0.05, **p<0.01, ***p<0.001 and […]

CC(C)Cc1ccc(C(C)C(=O)O)cc1 (stereo not drawn) [ibuprofen]
regulation of permeability with or without probenecid (TR146 cell layers; cells treated with cytokines): no distinct regulation | higher permeability by addition of probenecid (TR146 cell layers; cells treated with ibuprofen previously): 52.64% | higher permeability by addition of probenecid (TR146 cell layers; control group): 42.46% | ABCB1 mRNA expression [1]: 1.01± 0.04 n-fold | ABCC1 mRNA expression [1]: 1.26± 0.46 n-fold | ABCC2 mRNA expression [1]: 0.7± 0.65 n-fold | ABCC3 mRNA expression [1]: 0.97± 1.21 n-fold | ABCC4 mRNA expression [1]: 1.46± 0.5 n-fold | ABCC5 mRNA expression [1]: 0.69± 0.34 n-fold | ABCG2 mRNA expression [1]: 0.87± 1.23 n-fold | AMY mRNA expression [1]: 0.38± 0.43 n-fold | AQP1 mRNA expression [1]: 0.34± 0.19 n-fold | AQP3 mRNA expression [1]: 0.76± 0.67 n-fold | AQP5 mRNA expression [1]: 1.57± 1.16 n-fold | AQP9 mRNA expression [1]: 0.93± 0.04 n-fold | AQP10 mRNA expression [1]: 1.38± 0.72 n-fold | AQP11 mRNA expression [1]: 0.66 ± 0.07 n-fold | CDH1 mRNA expression [1]: 0.93± 0.62 n-fold | CK1 mRNA expression [1]: 11.98± 16.81 n-fold | CK4 mRNA expression [1]: 1.53± 1.73 n-fold | CK5 mRNA expression [1]: 0.27± 0.28 n-fold | CK7 mRNA expression [1]: 3.07± 2.11 n-fold | CK8 mRNA expression [1]: 0.92± 0.68 n-fold | CK10 mRNA expression [1]: 1.63± 2.38 n-fold | CK13tv1 mRNA expression [1]: 1.34± 0.93 n-fold | CK14 mRNA expression [1]: 1.53± 0.93 n-fold | CK18 mRNA expression [1]: 0.79± 0.85 n-fold | CK19 mRNA expression [1]: 1.53± 0.26 n-fold | CLDN1 mRNA expression [1]: 0.52± 0.71 n-fold | CLDN2 mRNA expression [1]: 5.02 n-fold | CLDN3 mRNA expression [1]: 1.95 n-fold | CLDN4 mRNA expression [1]: 0.74± 1.1 n-fold | CLDN5 mRNA expression [1]: 7.17± 10.76 n-fold | CLDN6 mRNA expression [1]: 1.83± 0.78 n-fold | CLDN7 mRNA expression [1]: 0.51± 0.72 n-fold | CLDN8 mRNA expression [1]: 0.49± 0.46 n-fold | CLDN9 mRNA expression [1]: 1.07± 1.46 n-fold | CLDN10tva mRNA expression [1]: 1.49± 2.21 n-fold | CLDN11 mRNA expression [1]: 0.6± 0.1 n-fold | CLDN12tv1 mRNA expression [1]: 0.73± 0.3 n-fold | CLDN12tv2 mRNA expression [1]: 0.47± 0.35 n-fold | CLDN12tv3 mRNA expression [1]: 0.79± 0.25 n-fold | CLDN14 mRNA expression [1]: 1.51 n-fold | CLDN15 mRNA expression [1]: 0.98± 0.96 n-fold | CLDN16 mRNA expression [1]: 1.79± 1.1 n-fold | CLDN17 mRNA expression [1]: 1.66± 1.15 n-fold | CLDN18tv2a mRNA expression [1]: 6.08± 8.62 n-fold | CLDN21 mRNA expression [1]: 1.29 n-fold | CLDN22 mRNA expression [1]: 0.4± 0.53 n-fold | CLDN24 mRNA expression [1]: 0.62 n-fold | CLDN25tv1-4 mRNA expression [1]: 0.65± 0.77 n-fold | CLDN25tv7 mRNA expression [1]: 1.34± 0.38 n-fold | CLDN27 mRNA expression [1]: 0.26 n-fold | DSG3 mRNA expression [1]: 0.83± 0.85 n-fold | INSR mRNA expression [1]: 0.52± 0.39 n-fold | JAM1 mRNA expression [1]: 0.5± 0.67 n-fold | JAM2 mRNA expression [1]: 0.55 n-fold | LOR mRNA expression [1]: 2.69± 2.89 n-fold | LRP1 mRNA expression [1]: 0.68± 0.36 n-fold | MARVELD2 mRNA expression [1]: 2.92± 1.97 n-fold | MFSD2A mRNA expression [1]: 0.85± 0.6 n-fold | MUC1A mRNA expression [1]: 0.53± 0.42 n-fold | MUC1B mRNA expression [1]: 0.81± 0.36 n-fold | MUC3A mRNA expression [1]: 2.34± 2.52 n-fold | MUC5AC mRNA expression [1]: 0.76± 0.17 n-fold | MUC15tv2 mRNA expression [1]: 0.46± 0.21 n-fold | MUC18 mRNA expression [1]: 0.89± 0.56 n-fold | MUC20 mRNA expression [1]: 1.43± 0.61 n-fold | OCLN mRNA expression [1]: 1.16± 1.05 n-fold | PECAM1 mRNA expression [1]: 0.77 n-fold | SLC2A1 mRNA expression [1]: 0.4± 0.26 n-fold | SLC7A1 mRNA expression [1]: 0.54± 0.49 n-fold | SLC7A5 mRNA expression [1]: 0.56± 0.91 n-fold | SLC16A1 mRNA expression [1]: 0.32± 0.48 n-fold | TFRC mRNA expression [1]: 0.79± 0.87 n-fold | VEGF-A mRNA expression [1]: 0.5± 0.27 n-fold | VIM mRNA expression [1]: 0.56± 0.52 n-fold | VWF mRNA expression [1]: 1.28 n-fold | ZO-1 mRNA expression [1]: 0.91± 0.81 n-fold | ZO-2 mRNA expression [1]: 1.26± 0.5 n-fold | ZO-3 mRNA expression [1]: 0.51± 0.84 n-fold
